Legend:
Assay in all cases: DHODH Inhibition Assay
[1] = target: T1, Dihydroorotate dehydrogenase (quinone), mitochondrial (Plasmodium falciparum, UniProt Q54A96); settings: pH 8; 22 °C
T1 sequence (Q54A96 whole entry): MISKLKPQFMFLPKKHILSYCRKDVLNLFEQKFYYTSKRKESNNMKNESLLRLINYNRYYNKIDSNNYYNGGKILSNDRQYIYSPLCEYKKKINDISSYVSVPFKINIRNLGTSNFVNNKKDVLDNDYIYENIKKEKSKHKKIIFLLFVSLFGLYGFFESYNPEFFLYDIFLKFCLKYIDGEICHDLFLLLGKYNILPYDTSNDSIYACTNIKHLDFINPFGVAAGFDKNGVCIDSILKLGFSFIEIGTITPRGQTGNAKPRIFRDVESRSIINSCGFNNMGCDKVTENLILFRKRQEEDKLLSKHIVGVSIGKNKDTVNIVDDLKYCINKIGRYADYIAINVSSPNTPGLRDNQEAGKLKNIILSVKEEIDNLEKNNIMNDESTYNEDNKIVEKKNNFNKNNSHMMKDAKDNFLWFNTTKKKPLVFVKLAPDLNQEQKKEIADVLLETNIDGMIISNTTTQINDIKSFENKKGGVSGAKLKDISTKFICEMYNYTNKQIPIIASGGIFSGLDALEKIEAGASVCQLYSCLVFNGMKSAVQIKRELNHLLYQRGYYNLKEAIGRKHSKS
Procedure: (§1) The assays were carried out by using a colorimetric DCIP method, which uses the colorimetric reagent 2, 6-dichlorophenolindophenol as the final electron acceptor. DCIP reduction is stoichiometrically equivalent to oxidation of dihydroorotate. Changes in absorbance were quantified on a plate reader and data were analyzed to measure the reduction of DCIP as a decrease in absorbance at 600 nm. For the determination of the IC50 values (concentration of inhibitor required for 50% inhibition) different inhibitor concentrations were applied.

[2] = target: T2, Dihydroorotate dehydrogenase (quinone), mitochondrial [30-395] (Homo sapiens, UniProt Q02127)
T2 construct: 30-395
T2 sequence (Q02127 30-395): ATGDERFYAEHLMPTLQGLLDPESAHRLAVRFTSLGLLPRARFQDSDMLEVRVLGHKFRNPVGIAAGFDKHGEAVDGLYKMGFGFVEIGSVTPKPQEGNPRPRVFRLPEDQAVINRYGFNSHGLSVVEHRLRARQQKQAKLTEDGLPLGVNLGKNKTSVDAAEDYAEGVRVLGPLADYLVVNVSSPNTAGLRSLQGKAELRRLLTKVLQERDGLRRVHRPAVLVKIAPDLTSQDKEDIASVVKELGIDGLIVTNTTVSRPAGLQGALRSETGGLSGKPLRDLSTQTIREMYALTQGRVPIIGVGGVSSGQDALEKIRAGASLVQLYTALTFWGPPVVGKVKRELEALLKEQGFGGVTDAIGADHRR
Procedure: as §1

[3] = target: Dihydroorotate dehydrogenase (quinone), mitochondrial [H185A] (Plasmodium falciparum, UniProt Q54A96, H185A)
Sequence of Dihydroorotate dehydrogenase (quinone), mitochondrial [H185A] (Q54A96 whole entry H185A): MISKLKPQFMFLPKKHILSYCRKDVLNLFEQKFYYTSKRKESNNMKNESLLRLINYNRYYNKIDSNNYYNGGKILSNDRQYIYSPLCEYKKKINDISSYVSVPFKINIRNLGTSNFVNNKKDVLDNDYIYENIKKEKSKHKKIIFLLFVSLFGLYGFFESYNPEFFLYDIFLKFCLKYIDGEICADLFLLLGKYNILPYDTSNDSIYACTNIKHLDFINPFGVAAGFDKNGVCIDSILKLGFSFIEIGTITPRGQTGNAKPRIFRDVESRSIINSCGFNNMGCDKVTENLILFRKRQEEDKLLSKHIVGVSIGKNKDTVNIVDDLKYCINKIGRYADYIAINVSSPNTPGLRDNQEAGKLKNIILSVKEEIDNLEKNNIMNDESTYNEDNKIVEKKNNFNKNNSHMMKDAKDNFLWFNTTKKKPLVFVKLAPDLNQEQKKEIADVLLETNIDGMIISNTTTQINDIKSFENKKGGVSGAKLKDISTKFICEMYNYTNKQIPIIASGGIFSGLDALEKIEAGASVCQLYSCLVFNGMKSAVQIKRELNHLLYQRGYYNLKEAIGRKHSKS
Procedure: as §1

[4] = target: Dihydroorotate dehydrogenase (quinone), mitochondrial [R265A] (Plasmodium falciparum, UniProt Q54A96, R265A)
Sequence of Dihydroorotate dehydrogenase (quinone), mitochondrial [R265A] (Q54A96 whole entry R265A): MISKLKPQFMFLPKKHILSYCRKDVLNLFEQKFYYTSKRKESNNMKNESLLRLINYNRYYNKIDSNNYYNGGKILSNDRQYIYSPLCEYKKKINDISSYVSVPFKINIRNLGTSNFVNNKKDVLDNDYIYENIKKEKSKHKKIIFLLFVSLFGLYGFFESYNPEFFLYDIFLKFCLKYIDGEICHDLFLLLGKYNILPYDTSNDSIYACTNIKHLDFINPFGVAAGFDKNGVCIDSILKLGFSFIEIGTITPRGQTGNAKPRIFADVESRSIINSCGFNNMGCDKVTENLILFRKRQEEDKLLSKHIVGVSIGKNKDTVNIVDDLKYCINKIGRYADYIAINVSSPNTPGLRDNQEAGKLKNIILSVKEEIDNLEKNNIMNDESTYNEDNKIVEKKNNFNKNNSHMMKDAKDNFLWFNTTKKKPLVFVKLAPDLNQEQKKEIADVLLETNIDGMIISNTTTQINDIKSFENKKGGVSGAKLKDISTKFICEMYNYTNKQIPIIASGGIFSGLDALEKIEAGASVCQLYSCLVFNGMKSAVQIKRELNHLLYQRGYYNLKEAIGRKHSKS
Procedure: as §1

| Structure (SMILES) | IC50 [1] | IC50 [2] | IC50 [3] | IC50 [4] |
| --- | --- | --- | --- | --- |
| Cc1c(C(=O)Nc2ccc(F)c(Cl)c2)cccc1[N+](=O)[O-] [N-(3-chloro-4-fluorophenyl)-2-methyl-3-nitrobenzamide] | 0.1 µM | 116 µM | 130 µM | 0.5 µM |
| Cc1c(C(=O)Nc2ccc(Cl)c(Cl)c2)cccc1[N+](=O)[O-] [N-(3,4-dichlorophenyl)-2-methyl-3-nitrobenzamide] | 0.08 µM | 72 µM | 60 µM | 2.8 µM |
| Cc1c(C(=O)Nc2cccc(C(F)(F)F)c2)cccc1[N+](=O)[O-] [2-methyl-3-nitro-N-[3-(trifluoromethyl)phenyl]benzamide] | 0.08 µM | 150 µM | 120 µM | 0.37 µM |
| Cc1c(C(=O)Nc2ccc(F)c(F)c2)cccc1[N+](=O)[O-] [N-(3,4-difluorophenyl)-2-methyl-3-nitrobenzamide] | 0.26 µM | 200 µM | 250 µM | 0.82 µM |
| Cc1c(C(=O)Nc2cccc3ccccc23)cccc1[N+](=O)[O-] [2-methyl-N-(naphthalen-1-yl)-3-nitrobenzamide] | 0.08 µM | 100 µM | 180 µM | 0.48 µM |
| Cc1cc(Br)ccc1NC(=O)c1ccc2ccccc2c1 [ChemBridge compound no. 2] | 0.05 µM | 210 µM | 570 µM | 0.05 µM |
| Cc1c(C(=O)Nc2cccc(Br)c2)cccc1[N+](=O)[O-] [N-(3-bromophenyl)-2-methyl-3-nitrobenzamide] | 0.06 µM | 105 µM | 140 µM | 1.2 µM |
| Cc1c(C(=O)Nc2cc(Cl)cc(Cl)c2)cccc1[N+](=O)[O-] [Asinex compound no. 6] | 0.016 µM | 200 µM | 130 µM | 0.4 µM |
| COc1ccccc1NC(=O)Nc1cccc2ccccc12 [3-(2-methoxyphenyl)-1-naphthalen-1-ylurea] | 0.23 µM | 112 µM | 140 µM | 0.24 µM |
| O=C(Nc1ccc(Cl)cc1Cl)c1ccc2ccccc2c1 [N-(2,4-dichlorophenyl)naphthalene-2-carboxamide] | 0.05 µM | > 50 µM | > 50 µM | 0.08 µM |
| O=C(Nc1ccccc1F)c1ccc2ccccc2c1 [N-(2-fluorophenyl)naphthalene-2-carboxamide] | 0.47 µM | 34 µM | 210 µM | 0.3 µM |
| O=C(Nc1ccccc1C(F)(F)F)Nc1cccc2ccccc12 [1-naphthalen-1-yl-3-[2-(trifluoromethyl)phenyl]urea] | 0.4 µM | > 1000 µM | > 200 µM | 0.34 µM |
| O=C(Nc1ccc(Cl)cc1)Nc1cccc2cccnc12 [3-(4-chlorophenyl)-1-quinolin-8-ylurea] | 0.78 µM | 116 µM | > 400 µM | 2 µM |
